By Papp A→B is commonly meant the apparent permeability from the apical to the basolateral side of a cell layer.

Data set [1] deals with RatMOG-induced EAE. The data set is described as follows: RatMOG-induced EAE, b.i.d. dosing until study end. It counts as in vivo. As for the experimental part:
Dosing of LOU064 was initiated 4 hours prior to MOG/CFA immunization and continued twice daily until study end.

Data set [2] deals with T1, BTK (Mus musculus, UniProt P35991).
T1 construct: BTK occupancy was assessed in brain homogenates that had been prepared for compound exposure analysis; from tissue; host or cells: spleen, inguinal lymph nodes, blood and brain homogenate of C57BL/6 EAE mice
The data set is described as follows: Trough BTK occupancy in spleen, blood and brain, RatMOG EAE. It counts as in vivo. The settings on record: 30 mg/kg b.i.d., 16 h after the last dose.

The target of data set [3] is T2, BTK (Rattus norvegicus, UniProt Q5S255).
T2 construct: from tissue; host or cells: blood and spleen of female rats
Particulars: female rats, single oral dose of 3 mg/kg; cited from earlier work.

Data set [4] addresses T3, BTK (Homo sapiens, UniProt Q06187).
T3 construct: simulate BTK occupancy in human spleen/tissues across a range of doses; from tissue; host or cells: human spleen / peripheral tissues (simulated, not sampled)
The data set is described as follows: BTK occupancy in blood as biomarker for dose selection. It counts as in vivo. Particulars: low doses. From the text: BTK occupancy in blood is not an informative biomarker for the purpose of dose selection due to LOU064 pharmacological properties (irreversible binding). […] Occupancy in tissue may be more representative of the efficacy of LOU064.

The conditions of data set [5]: single/multiple doses 0.5 mg to 600 mg up to 18 days; 100 and 200 mg b.i.d.; cited from earlier work.
In data set [6] the test system is RatMOG-induced EAE. Briefly: RatMOG-induced EAE, short eight-day (pre-disease) protocol. Particulars: dosed in vivo 8 days; LOU064 1, 3 and 10 mg/kg. Also noted: species or system mouse. The protocol:
Isolated draining lymph node cells were incubated in vitro with RatMOG for 48 hours. Antigen-specific proliferation was determined by [^3H]-thymidine incorporation. Animals dosed in vivo with BTK inhibitors (LOU064, ibrutinib or Cyclosporin A (CsA) for 8 days. Group sizes n=4-5 per treatment.
To elucidate further whether BTK inhibitor efficacy was directly linked to reduction in B-cell antigen-presenting function compounds were tested in recombinant RatMOG-induced EAE model. This EAE model shares many of the characteristics of recombinant HumanMOG-induced EAE with MOG-specific T-cells infiltrating the CNS and resulting in neurological paralysis. However, RatMOG-induced EAE is B-cell independent and the dendritic cells are the dominant antigen-presenting cells type. Therefore, BTK inhibitors would be predicted to have no significant efficacy in RatMOG-induced EAE unless drug treatment was associated with a broader, non-specific, immune suppression. In addition to LOU064, which was used at 1 mg/kg, 3 mg/kg and 10 mg/kg, the reference compound ibrutinib was tested.
Cyclosporin A (CsA) acted as a positive control for direct T-cell immunosuppression. […] Ex vivo MOG-induced recall proliferation responses were studied using isolated splenocytes collected on day 8 post-immunization. In vivo BTK inhibitor treatment had no effect on recall responses (FIG. 12).

Data set [7] can be described thus: Co-administration with oral contraceptives. It counts as in vivo. Particulars: co-administered ethinylestradiol or levonorgestrel.
Data set [8] deals with canine P-gp knockout MDCK cell monolayers (MDCK-LE V2). Briefly: Passive permeability, canine P-gp knockout MDCK cell monolayers (MDCK-LE V2). It counts as in vitro ADME. The settings on record: MDCK trans-well assay. As for the experimental part: (§1) Passive permeability measurement using canine P-gp knockout MDCK cell monolayers (MDCK-LE V2)
(§2) A cell-based assay was used to assess the passive permeability of drug candidates in the context of gastro-intestinal absorption. A MDCK cell line where the endogenous canine Mdr1 (cMdr1) gene encoding P-gp has been knocked out is grown to form monolayers on a 96-well Transwell plate. Compounds are loaded in cassettes of three at a concentration of 10 μM each to the apical compartment and following a period of two hours incubation the amount of compound appearing in the basal chamber is quantitated by tandem mass spectrometry.
(§3) In particular, a MDCK cell line was generated by knocking-out the endogenous canine Mdr1 (cMdr1) gene. A subclone of this cell line was used to relate passive permeability to the fraction absorbed in human intestine using a set of 37 commercial compounds for which the fraction absorbed was known. The assay is able to estimate the fraction absorbed in human based on the Papp measured in the assay.
(§4) Samples were subject to RapidFire/MS/MS analysis and LC/MS/MS analysis. […]

Assay in data set [9]: as above
Particulars: dog, MDCK; 10 μM apical, two hours incubation. It counts as in vitro ADME. The protocol: as §1, §2, §3, §4

Data set [10] in a line: Phase 2b trial in CSU, efficacy over 12 weeks. It counts as in vivo, human. The settings on record: 25 mg b.i.d. regimen.
Protocol: In a Phase 2b, randomized, double-blind, placebo-controlled trial evaluating the efficacy and safety of LOU064 over 12 weeks in patients inadequately controlled by Hi-antihistamines, with at least moderately active CSU, patients received LOU064 10 mg q.d. (once daily), 35 mg q.d., 100 mg q.d., 10 mg b.i.d. (twice daily), 25 mg b.i.d., 100 mg b.i.d., or placebo (1:1:1:1:1:1:1 ratio).

Entries after “also recorded” stand apart in the source; their conditions may differ.

T1 sequence (P35991 whole entry): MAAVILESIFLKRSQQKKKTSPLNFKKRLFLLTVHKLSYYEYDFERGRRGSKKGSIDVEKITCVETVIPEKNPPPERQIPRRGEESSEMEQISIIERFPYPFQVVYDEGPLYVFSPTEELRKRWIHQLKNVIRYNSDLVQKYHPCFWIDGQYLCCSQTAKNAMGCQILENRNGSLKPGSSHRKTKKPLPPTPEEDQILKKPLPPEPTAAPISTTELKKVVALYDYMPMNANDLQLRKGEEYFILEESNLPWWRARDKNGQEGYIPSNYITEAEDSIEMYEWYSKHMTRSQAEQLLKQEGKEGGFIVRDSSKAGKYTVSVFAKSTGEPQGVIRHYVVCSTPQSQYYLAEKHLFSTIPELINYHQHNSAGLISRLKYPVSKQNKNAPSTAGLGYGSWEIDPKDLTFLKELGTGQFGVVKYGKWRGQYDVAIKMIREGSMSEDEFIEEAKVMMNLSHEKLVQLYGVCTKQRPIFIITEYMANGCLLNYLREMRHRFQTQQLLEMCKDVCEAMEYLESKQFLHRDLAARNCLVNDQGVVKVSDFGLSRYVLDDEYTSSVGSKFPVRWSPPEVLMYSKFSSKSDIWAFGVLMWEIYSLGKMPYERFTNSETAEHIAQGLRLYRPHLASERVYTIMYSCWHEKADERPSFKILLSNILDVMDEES
T2 sequence (Q5S255 1-660): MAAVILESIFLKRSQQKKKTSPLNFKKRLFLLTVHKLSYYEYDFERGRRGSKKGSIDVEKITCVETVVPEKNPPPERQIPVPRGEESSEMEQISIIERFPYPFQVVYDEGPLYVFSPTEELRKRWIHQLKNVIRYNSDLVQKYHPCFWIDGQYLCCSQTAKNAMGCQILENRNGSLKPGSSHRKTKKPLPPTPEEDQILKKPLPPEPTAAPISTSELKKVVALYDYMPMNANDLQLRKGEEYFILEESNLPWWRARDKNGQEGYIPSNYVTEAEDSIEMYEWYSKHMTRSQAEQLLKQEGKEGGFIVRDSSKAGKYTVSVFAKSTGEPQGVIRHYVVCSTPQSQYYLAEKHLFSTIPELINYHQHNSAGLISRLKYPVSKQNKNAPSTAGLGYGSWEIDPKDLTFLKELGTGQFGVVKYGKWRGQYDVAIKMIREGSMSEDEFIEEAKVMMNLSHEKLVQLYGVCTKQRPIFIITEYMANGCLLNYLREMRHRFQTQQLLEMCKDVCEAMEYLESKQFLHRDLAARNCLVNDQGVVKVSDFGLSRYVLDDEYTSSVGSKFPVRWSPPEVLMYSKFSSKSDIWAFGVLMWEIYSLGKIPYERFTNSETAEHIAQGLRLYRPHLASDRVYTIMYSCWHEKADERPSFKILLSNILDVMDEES
T3 sequence (Q06187 whole entry): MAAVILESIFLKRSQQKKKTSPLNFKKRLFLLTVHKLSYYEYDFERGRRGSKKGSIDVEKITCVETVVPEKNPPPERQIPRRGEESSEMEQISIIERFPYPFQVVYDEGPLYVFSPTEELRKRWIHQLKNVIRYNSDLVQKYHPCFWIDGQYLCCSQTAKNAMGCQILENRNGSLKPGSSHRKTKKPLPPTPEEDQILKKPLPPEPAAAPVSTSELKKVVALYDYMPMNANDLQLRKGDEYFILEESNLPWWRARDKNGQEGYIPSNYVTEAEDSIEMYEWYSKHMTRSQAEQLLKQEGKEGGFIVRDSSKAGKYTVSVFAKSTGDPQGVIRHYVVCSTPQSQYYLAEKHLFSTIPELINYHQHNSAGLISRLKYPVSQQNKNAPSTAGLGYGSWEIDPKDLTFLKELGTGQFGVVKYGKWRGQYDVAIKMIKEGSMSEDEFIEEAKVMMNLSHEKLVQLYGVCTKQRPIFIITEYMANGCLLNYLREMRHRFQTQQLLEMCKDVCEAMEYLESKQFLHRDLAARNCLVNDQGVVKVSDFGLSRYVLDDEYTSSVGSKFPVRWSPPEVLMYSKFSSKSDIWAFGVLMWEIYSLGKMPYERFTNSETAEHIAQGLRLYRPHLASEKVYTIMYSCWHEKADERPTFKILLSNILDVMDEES

As for `C=CC(=O)N(C)CCOc1c(N)ncnc1-c1cc(F)cc(NC(=O)c2ccc(C3CC3)cc2F)c1C` [LOU064, N-(3-(6-amino-5-(2-(N-methylacrylamido)ethoxy)pyrimidin-4-yl)-5-fluoro-2-methylphenyl)-4-cyclopropyl-2-fluorobenzamide], the tolerability result in the data set with RatMOG-induced EAE [1] (30 mg/kg b.i.d.) is given as “well tolerated in all mice”. Moreover, in the data set on RatMOG-induced EAE [1] (30 mg/kg b.i.d., p value=0.013), the cumulative disease burden entry is on record as “significantly reduced”. The “disease incidence and time of EAE onset” value in the data set with RatMOG-induced EAE [1] (30 mg/kg b.i.d., p value=0.018) was “reduction in the incidence of EAE and a delayed onset; also recorded: significantly reduced disease incidence”. Further, in the data set with RatMOG-induced EAE [1] (30 mg/kg p.o. b.i.d.), the “clinical symptoms of EAE / EAE scores” value is “inhibited inflammation-induced clinical symptoms of EAE and cachexia; also recorded: efficacious at reducing the severity of RatMOG-induced EAE; also recorded: improvement in EAE scores”; the “daily body weight changes (cachexia)” value was “significantly reduced”. Further, at BTK [2], the “BTK occupancy in brain” value is reported as “intermediate levels; also recorded: only partial BTK occupancy in the brain”; the “BTK occupancy in spleen and blood” value is “in a range indicative of maximal BTK occupancy; also recorded: full BTK occupancy in blood and spleen”. Also, the “BTK occupancy in blood and spleen” value at BTK [3] is given as “full BTK occupancy”. Moreover, the “BTK occupancy in blood” value at BTK [4] was “reaches full occupancy even at low doses”. Besides, the short-term safety result in [5] is reported as “has been shown in Phase I clinical studies”. The “RatMOG (auto)antigen recall proliferation” value in the data set on RatMOG-induced EAE [6] was “failed to inhibit (auto)antigen recall proliferation”. Further, the “impact on exposure and efficacy of oral contraceptives” value in data set [7] is “without a major impact on their exposure and efficacy”. Besides, the recovery entry in [8] is listed as “high recovery”. Further, the Papp A→B at 2 h, 10 μM in [9] worked out at 37.3 ×10⁻⁶ cm/s. In addition, in [10], the “efficacy in CSU” value is “particularly effective compared to the other doses”.
